# Laboratory results published in patent publication US20260109712A1, “RIFAMYCINS FOR NONTUBERCULOUS MYCOBACTERIA” (priority 2022, published 2026).
# Experiments:
# Δarr M. abscessus = experiment: MIC assay, isogenic arr-deleted strain; format: cell-based, Mycobacterium abscessus; conditions: Table 10
# Description: (§1) MIC determination was carried out in 96-well plate format as previously described.^[13-14] 96-well plates were initially set up with 100 μL of 7H9 per well. For each compound, a ten-point two-fold dilution series starting at twice the desired highest concentration was dispensed onto the 96-well plates using a Tecan D300e Digital Dispenser, with the DMSO concentration normalized to 2%. M. abscessus culture grown to mid-log phase (OD600=0.4-0.6) was diluted to OD600=0.1 (1×10^7 CFU/mL). […] Untreated control wells are included on each plate that contain bacteria suspension and 1% DMSO. Plates were sealed with parafilm, stored in boxes with wet paper towels and incubated at 37° C. with shaking (110 RPM). Plates were incubated for 3 days. To determine growth, OD600 was measured using a Tecan Infinite M200 plate reader on Day 0 and Day 3. Two biological replicates were performed. Clarithromycin was included in each experiment as a positive control.
# (§2) For each well on the 96-well plate, bacterial growth was calculated by subtracting the Day 0 OD600 value from the Day 3 OD600 value. […] For compound-containing wells, percentage growth was calculated by dividing their growth values by the average drug-free bacterial growth for the compound series and multiplying by 100. For each compound series, we plotted percentage growth versus compound concentration.
# M. abscessus ATCC 19977 = experiment: MIC assay in 96-well plate format, wild-type strain; format: cell-based, Mycobacterium abscessus; conditions: for MICWT: Table 10; for MIC: Table 15, heterocyclic aromatic carbamates, read-out: WT Mab MIC
# Description: as §1, §2
# [1] = Plasma protein binding assay (rapid equilibrium dialysis); format: in vitro ADME
# Description: DMSO stocks were spiked into plasma to a concentration of 10,000 ng/mL. 200 μL of spiked plasma was pipetted into the sample chamber of the rapid equilibrium dialysis (RED) cartridge. 350 μL of PBS was added to the adjacent cartridge. The plate containing the RED was sealed and incubated at 37° C. on the thermomixer at 300 RPM for 4 h. After incubation, 50 μL aliquots of plasma were removed and added to 50 μL of blank plasma in a deep well plate (1:1). Similarly, 50 μL aliquots of PBS were removed and added to 50 μL of blank plasma. This created an identical matrix between buffer and non-buffer samples. Samples were processed and quantified as specified in the LC-MS/MS analytical method.
Structure (SMILES),MICΔorr (Δarr M. abscessus) [µM],MICWT (M. abscessus ATCC 19977) [µM],plasma unbound fraction ([1]; Table 10) [%],MIC (M. abscessus ATCC 19977) [µM],ƒu [1] [%],plasma unbound fraction ([1]; plasma) [%]
CO[C@H]1/C=C/O[C@@]2(C)Oc3c(C)c(O)c4c(c3C2=O)C2=NC3(CCN(CC(C)C)CC3)NC2=C(NC(=O)/C(C)=C/C=C/[C@H](C)[C@H](O)[C@@H](C)[C@@H](O)[C@@H](C)[C@H](OC(=O)c2ccccc2F)[C@@H]1C)C4=O [UMN23],0.058,0.06,0.05,–,–,–
CO[C@H]1/C=C/O[C@@]2(C)Oc3c(C)c(O)c4c(c3C2=O)C2=NC3(CCN(CC(C)C)CC3)NC2=C(NC(=O)/C(C)=C/C=C/[C@H](C)[C@H](O)[C@@H](C)[C@@H](O)[C@@H](C)[C@H](OC(=O)c2ccccc2Cl)[C@@H]1C)C4=O [UMN24],0.049,0.043,0.06,–,–,–
COc1ccccc1C(=O)O[C@H]1[C@H](C)[C@H](O)[C@H](C)[C@@H](O)[C@@H](C)/C=C/C=C(\C)C(=O)NC2=C3NC4(CCN(CC(C)C)CC4)N=C3c3c(c(O)c(C)c4c3C(=O)[C@@](C)(O/C=C/[C@H](OC)[C@H]1C)O4)C2=O [UMN29],0.03,0.03,0.22,–,–,–
CO[C@H]1/C=C/O[C@@]2(C)Oc3c(C)c(O)c4c(c3C2=O)C2=NC3(CCN(CC(C)C)CC3)NC2=C(NC(=O)/C(C)=C/C=C/[C@H](C)[C@H](O)[C@@H](C)[C@@H](O)[C@@H](C)[C@H](OC(=O)Nc2cccc(C)c2)[C@@H]1C)C4=O [UMN35],0.036,0.034,0.05,–,–,–
CO[C@H]1/C=C/O[C@@]2(C)Oc3c(C)c(O)c4c(c3C2=O)C2=NC3(CCN(CC(C)C)CC3)NC2=C(NC(=O)/C(C)=C/C=C/[C@H](C)[C@H](O)[C@@H](C)[C@@H](O)[C@@H](C)[C@H](OC(=O)Nc2ccccc2-c2ccccc2)[C@@H]1C)C4=O [UMN36],0.05,0.035,–,0.035,0.02,0.02
COc1ccc(NC(=O)O[C@H]2[C@H](C)[C@H](O)[C@H](C)[C@@H](O)[C@@H](C)/C=C/C=C(\C)C(=O)NC3=C4NC5(CCN(CC(C)C)CC5)N=C4c4c(c(O)c(C)c5c4C(=O)[C@@](C)(O/C=C/[C@H](OC)[C@H]2C)O5)C3=O)cc1 [UMN37],0.034,0.031,0.15,–,–,–
CO[C@H]1/C=C/O[C@@]2(C)Oc3c(C)c(O)c4c(c3C2=O)C2=NC3(CCN(CC(C)C)CC3)NC2=C(NC(=O)/C(C)=C/C=C/[C@H](C)[C@H](O)[C@@H](C)[C@@H](O)[C@@H](C)[C@H](OC(=O)Nc2ccccc2C)[C@@H]1C)C4=O [UMN39],0.017,0.014,–,0.014,0.1,0.13
CO[C@H]1/C=C/O[C@@]2(C)Oc3c(C)c(O)c4c(c3C2=O)C2=NC3(CCN(CC(C)C)CC3)NC2=C(NC(=O)/C(C)=C/C=C/[C@H](C)[C@H](O)[C@@H](C)[C@@H](O)[C@@H](C)[C@H](OC(=O)N2CCNCC2)[C@@H]1C)C4=O [UMN86],0.10,0.11,–,–,–,–
CO[C@H]1/C=C/O[C@@]2(C)Oc3c(C)c(O)c4c(c3C2=O)C2=NC3(CCN(CC(C)C)CC3)NC2=C(NC(=O)/C(C)=C/C=C/[C@H](C)[C@H](O)[C@@H](C)[C@@H](O)[C@@H](C)[C@H](OC(=O)NC2CC(C)(C)N(Cc3ccccc3)C(C)(C)C2)[C@@H]1C)C4=O [UMN87],0.30,0.23,–,–,–,–
CO[C@H]1/C=C/O[C@@]2(C)Oc3c(C)c(O)c4c(c3C2=O)C2=NC3(CCN(CC(C)C)CC3)NC2=C(NC(=O)/C(C)=C/C=C/[C@H](C)[C@H](O)[C@@H](C)[C@@H](O)[C@@H](C)[C@H](OC(=O)NC2CC(C)(C)N(C)C(C)(C)C2)[C@@H]1C)C4=O [UMN91],0.10,0.11,–,–,–,–
